Active and inactive are the calls of the source. The calls are words filed in the database; no cut-off is given here.
Columns and labels:
Mus musculus [1] = experiment: Toxicity in albino Swiss mouse assessed as effect on spontaneous locomotor activity at 1 mg/kg, ip dosed 30 mins before test measured for 1 min 15 secs by M3 multichannel activity test; format: organism-based; details: in vivo
Mus musculus [2] = experiment: Antidepressant-like activity in albino Swiss mouse assessed as reduction in immobility time at 10 mg/kg, ip dosed 30 mins before test by forced swim test; format: functional; design: scale not given: the % may be the effect or the level left
Mus musculus [3] = experiment: Toxicity in albino Swiss mouse assessed as effect on spontaneous locomotor activity at 10 mg/kg, ip dosed 30 mins before test measured for 2 to 6 mins by M3 multichannel activity test; format: organism-based; details: in vivo
Mus musculus [4] = experiment: Anxiolytic-like activity in albino Swiss mouse assessed as increase in number of punished crossings at 1 mg/kg, ip dosed 30 mins before test by four plate test; format: functional, organism-based

For `CC1CCN(CC[C@H]2CCCN2S(=O)(=O)c2cccc(O)c2)CC1`, the Activity (Mus musculus [1]) was “Non-toxic”, the Activity (Mus musculus [2]) was 33% and the Activity (Mus musculus [3]) was “Non-toxic”. The Activity (Mus musculus [4]) was “Active”.

From ChEMBL document CHEMBL3739404, “Arylsulfonamide derivatives of (aryloxy)ethylpiperidines as selective 5-HT7receptor antagonists and their psychotropic properties” (Medchemcomm, 2015)
